US20240376111A1, “COMPOSITIONS AND METHODS OF USING THE SAME FOR TREATMENT OF NEURODEGENERATIVE AND MITOCHONDRIAL DISEASE” (Mitokinin, Inc., priority 2021, published 2024)
Like-named read-outs stand apart in the source and are kept apart here.

Legend:
[1] = tested on: HeLa cells expressing mt-Keima and YFP-Parkin (HeLa MKYP); experiment: Human mt-Keima mitophagy assay; assay type: cell-based; details: HeLa MKYP cells, 16 hrs with compound, then 1 uM FCCP/oligomycin for 6 hours, FACS, read-out: EC50 in HeLa mt-Keima Mitophagy Assay
Procedure: Briefly, HeLa cells expressing mt-Keima and YFP-Parkin (HeLa MKYP) were plated at 10,000 cells/well in 96 well plates along with compounds at various concentrations. Following 16 hrs of incubation, cells were treated with 1 uM FCCP/oligomycin for 6 hours, then analyzed via FACS for the presence of mitochondria in lysosomes (as determined by an emissions spectrum shift from the pH-sensitive mt-Keima tag).

[2] = tested on: pS129 α-synuclein in mouse primary neurons treated with α-synuclein PFFs; experiment: In vitro primary neuron α-synuclein pre-formed fibril (PFF) model; assay type: cell-based; details: increasing doses, Western blot of insoluble fraction of lysates
Procedure: Primary hippocampal neurons were derived following standard protocols, and treated with sonicated PFFs according to the methods in Volpicelli-Daley et al (Methods Mol Biol 2019). Following addition of PFFs or PBS on DIV7, Mitokinin compound or vehicle control was added on DIV9 and DIV12. At DIV14, cultures were harvested for biochemical analysis using either whole cell lysis buffer or fractionation buffer containing NP-40.
For whole cell lysates, cultures were collected in WC lysis buffer [100 mM Bicine pH 8.0, 0.27M Sucrose (Sigma S-1888, FW: 342.3), 1 mM EDTA, 1 mM EGTA, 5 mM Na4P2O7 (ESB422, MW 446.06 g/mol), 100 mM Tris pH 7.5, 1% Triton X-100, 1× Halt™ Protease and Phosphatase Inhibitor Cocktail, with Benzonase (1:1000)]. Samples were incubated on ice for 30 min, sonicated, and then cleared by centrifugation at 18,000 g for 20 min at 4° C. Supernatant protein concentration was determined by BCA assay, and samples were analyzed by western blot using commercially available antibodies. Neuronal health markers included NfL, total caspase-3, cleaved caspase-3, pS65 Ub, LC3, TUJ1, and actin.
For fractionation, cells were collected in NP-40 lysis buffer (containing 10 mM Tris-HCl, pH 7.4, 150 mM NaCl, 5 mM EDTA, 0.5% Nonidet P-40, 1× Halt™ Protease and Phosphatase Inhibitor Cocktail, with Benzonase (1:1000). Following differential centrifugation at 22,000 g for 20 min at 4° C., the NP-40 insoluble pellet was resuspended in SDS-Brain lysis buffer (containing 10 mM Tris-HCl, pH 7.4, 150 mM NaCl, 5 mM EDTA, 0.5% Nonidet P-40, 1% SDS, 0.5% sodium deoxycholate, 1× Halt™ Protease and Phosphatase Inhibitor Cocktail, with Benzonase (1:1000) and sonicated. Protein concentrations were determined using the BCA assay and samples were analyzed for pS129 α-synuclein and total α-synuclein levels by western blot.

[3] = tested on: SKOV3 cells; experiment: In vitro mitosafety (glucose/galactose) assay; details: highest mito-safe dose = highest concentration at which gal/glc>0.80 (IC20) in SKOV3 cells, divided by mt-Keima EC50
Procedure: (§1) Briefly, SKOV3 cells (ATCC HTB-77) were plated in DMEM (Corning 10-013-CV) medium containing 25 mM glucose or DMEM with no glucose (Gibco 11966-025) supplemented with 10 mM galactose at 9,000 cells/well in 96 well plates (Corning costar 3610). 24 hrs later, compounds, in DMSO, were added at various concentrations to a final 0.1% DMSO for all wells. […] After a 15 minute incubation cellular ATP levels were read out using a Promega GloMax® DiscoverMicroplate Reader.
(§2) The ratio of relative CellTiter-Glo values from cells grown in galactose to cells grown in glucose was determined (gal/glc ratio). The gal/glc ratio vs concentration is then graphed, and non-linear regression is used to find the highest concentration of MTK compound at which gal/glc>0.80 (the “highest mito-safe dose”, or IC20).

[4] = tested on: SKOV3 cells
Procedure: as §1, §2

EC50 ([1]; Homo sapiens) | EC50 [1] | Compound | pS129 α-synuclein [2] | Mito-Safety Index (highest mito-safe dose/mt-Keima EC50) [3] | Mito-Safety Index (highest mito-safe dose/mt-Keima EC50) [4]
130 nM |  | COCCO[C@H]1COc2ccccc2[C@@H]1Nc1ncnc2[nH]c(C3CC3)cc12 [EP-0041944, 6-cyclopropyl-N-[(3R,4S)-3-(2-methoxyethoxy)chroman-4-yl]-7H-pyrrolo[2,3-d]pyrimidin-4-amine] | significantly reduces | 45.94 | 
149 nM |  | CC(C)(F)CO[C@H]1COc2ccccc2[C@@H]1Nc1ncnc2[nH]c(C3CC3)cc12 [EP-0043180, 6-cyclopropyl-N-[(3R,4S)-3-(2-fluoro-2-methyl-propoxy)chroman-4-yl]-7H-pyrrolo[2,3-d]pyrimidin-4-amine] | significantly reduces | 168.02 | 
 | 246 nM | N-[(3R,4,S)-3-(2-methoxyethoxy)chroman-4-yl]-6-(trifluoromethyl)-7H-pyrrolo[2,3-d]pyrimidin-4-amine [EP-0042319] | significantly reduces |  | 74.75
